Where two headings read alike, the source gives them in different places.
Tests used:
[1] = assay type: physicochemical
Experimental: (§1) The compound of formula (I) (0.5 g, 1.04 mmol) (prepared according to Example 1) and the compound of formula (I) (0.5 g, 1.04 mmol) (prepared according to Example 11) were added to a 25 mL one-necked flask, followed by addition of 4.0 mL of ethyl acetate-isopropyl ether (v:v=1:1). The mixture was pulped at room temperature, then filtered and dried to obtain a solid (872 mg, yield: 87.2%).
as §1, with “12)” for “11)”, “(850” for “(872”, “85.0%).” for “87.2%).”

AR [2] = molecular target: T1, AR (Homo sapiens, UniProt P10275); conditions: cited from earlier work
T1 sequence (P10275 1-920): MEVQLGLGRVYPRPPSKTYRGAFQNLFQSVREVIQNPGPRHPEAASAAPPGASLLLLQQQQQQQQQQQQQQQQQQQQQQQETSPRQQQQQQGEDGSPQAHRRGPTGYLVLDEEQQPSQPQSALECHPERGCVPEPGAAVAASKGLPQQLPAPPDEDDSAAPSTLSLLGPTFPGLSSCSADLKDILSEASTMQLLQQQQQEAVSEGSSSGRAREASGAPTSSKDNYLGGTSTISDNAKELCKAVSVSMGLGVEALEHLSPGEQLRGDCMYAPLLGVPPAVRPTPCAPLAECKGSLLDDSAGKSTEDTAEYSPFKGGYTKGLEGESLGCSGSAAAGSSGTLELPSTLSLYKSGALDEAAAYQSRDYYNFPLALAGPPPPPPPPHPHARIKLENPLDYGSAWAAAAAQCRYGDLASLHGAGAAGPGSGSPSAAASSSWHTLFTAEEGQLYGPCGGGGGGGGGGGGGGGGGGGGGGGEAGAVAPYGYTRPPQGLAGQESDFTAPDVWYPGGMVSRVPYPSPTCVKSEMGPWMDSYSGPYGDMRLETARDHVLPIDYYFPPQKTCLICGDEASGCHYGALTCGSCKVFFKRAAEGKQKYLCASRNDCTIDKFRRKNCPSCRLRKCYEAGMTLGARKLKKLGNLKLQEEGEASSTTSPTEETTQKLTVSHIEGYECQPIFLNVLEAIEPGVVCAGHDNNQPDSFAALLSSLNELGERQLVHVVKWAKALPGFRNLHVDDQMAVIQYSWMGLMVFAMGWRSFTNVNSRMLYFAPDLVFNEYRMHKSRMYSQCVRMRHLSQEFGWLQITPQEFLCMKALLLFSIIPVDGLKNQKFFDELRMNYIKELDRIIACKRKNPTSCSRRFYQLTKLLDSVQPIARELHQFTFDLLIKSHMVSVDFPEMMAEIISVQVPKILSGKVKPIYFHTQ

[3] = system: five major subtypes of CYP450; conditions: cited from earlier work
AR [4] = molecular target: T1, AR; conditions: compared with MDV-3100; cited from earlier work
hERG = hERG (Homo sapiens, UniProt Q12809); conditions: cited from earlier work
hERG, sequence (Q12809 whole entry): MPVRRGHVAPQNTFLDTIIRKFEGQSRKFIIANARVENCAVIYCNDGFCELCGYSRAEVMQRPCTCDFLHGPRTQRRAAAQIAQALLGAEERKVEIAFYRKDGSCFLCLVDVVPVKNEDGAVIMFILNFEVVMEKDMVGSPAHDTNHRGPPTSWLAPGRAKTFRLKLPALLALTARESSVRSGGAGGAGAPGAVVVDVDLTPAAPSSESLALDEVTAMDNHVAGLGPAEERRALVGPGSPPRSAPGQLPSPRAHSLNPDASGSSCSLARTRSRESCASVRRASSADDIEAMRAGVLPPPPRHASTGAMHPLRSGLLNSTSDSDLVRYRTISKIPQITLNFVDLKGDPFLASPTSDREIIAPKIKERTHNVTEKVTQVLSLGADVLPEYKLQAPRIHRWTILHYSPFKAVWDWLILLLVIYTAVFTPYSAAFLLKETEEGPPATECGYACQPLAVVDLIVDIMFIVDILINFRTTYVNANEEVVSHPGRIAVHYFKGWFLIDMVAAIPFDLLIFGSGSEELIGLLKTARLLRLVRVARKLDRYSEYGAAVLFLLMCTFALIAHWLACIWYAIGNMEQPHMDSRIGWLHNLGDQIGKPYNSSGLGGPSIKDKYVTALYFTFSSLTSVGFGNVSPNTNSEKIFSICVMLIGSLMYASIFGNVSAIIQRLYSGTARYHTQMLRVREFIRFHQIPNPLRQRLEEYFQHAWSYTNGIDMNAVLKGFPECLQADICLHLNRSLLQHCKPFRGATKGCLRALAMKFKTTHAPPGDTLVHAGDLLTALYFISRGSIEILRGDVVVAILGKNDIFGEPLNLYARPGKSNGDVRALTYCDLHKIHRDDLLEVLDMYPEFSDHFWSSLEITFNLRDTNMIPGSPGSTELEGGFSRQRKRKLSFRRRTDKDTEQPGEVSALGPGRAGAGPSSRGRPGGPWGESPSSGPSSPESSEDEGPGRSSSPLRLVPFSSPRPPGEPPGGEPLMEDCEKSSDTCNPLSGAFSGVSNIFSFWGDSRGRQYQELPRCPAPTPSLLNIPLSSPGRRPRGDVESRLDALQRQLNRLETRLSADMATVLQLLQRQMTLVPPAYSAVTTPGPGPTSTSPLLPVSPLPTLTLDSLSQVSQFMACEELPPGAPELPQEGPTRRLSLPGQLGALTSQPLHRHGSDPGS

[5] = dog; cited from earlier work
[6] = rat; cited from earlier work
[7] = mouse, in vivo; cited from earlier work
[8] = assay type: physicochemical; remark: listed apart in the source
Experimental: Samplings were carried out on Day 5 and Day 10.

[9] = assay type: physicochemical; conditions: for Crystal form / Purity: 25° C., RH 60%
Experimental: The sample was placed under conditions of 25° C., RH 60% for a long period of time, and regular sampling was carried out to determine the purity.

[10] = assay type: physicochemical; remark: listed apart in the source
AIPC [11] = conditions: mouse; cited from earlier work
AIPC [12] = conditions: human; cited from earlier work

## CC1(C)C(=O)N(c2ccc(C#N)c(C(F)(F)F)c2)C(=S)N1c1ccc(OC[C@@H](O)CO)cc1 [crystal form III]
[1]; pulped with crystal form I in ethyl acetate-isopropyl ether (v:v=1:1) at room temperature
  crystal form transformation: can be transformed into crystal form I

## CC1(C)C(=O)N(c2ccc(C#N)c(C(F)(F)F)c2)C(=S)N1c1ccc(OC[C@@H](O)CO)cc1 [compound of formula (I), (S)-4-(3-(4-(2,3-dihydroxypropoxy)phenyl)-4,4-methyl-5-carbonyl-2-thioimidazolin-1-yl)-2-(trifluoromethyl)benzonitrile]
AR [2]; at 3 μM
  AR agonist activity: no AR agonist activity
AR [2]; at 10 μM
  AR agonist activity: no AR agonist activity
[3]
  IC50: > 50 µM
AR [4]
  activity in vitro: slightly better than that of MDV-3100
hERG
  IC50: 24.8 µM
[5]
  in vivo exposure: more than six times that of MDV-3100
[6]
  in vivo exposure: comparable to that of MDV-3100
[7]
  ratio of drug concentration in brain tissue to drug concentration in plasma: much lower than that of MDV-3100

## CC1(C)C(=O)N(c2ccc(C#N)c(C(F)(F)F)c2)C(=S)N1c1ccc(OC[C@@H](O)CO)cc1 [Crystal form I, (S)-4-(3-(4-(2,3-dihydroxypropoxy)phenyl)-4,4-dimethyl-5-carbonyl-2-thioimidazolin-1-yl)-2-(trifluoromethyl)benzonitrile]
[1]
  relative stability of crystal forms: more stable
[8]; 40° C., day 0
  purity as detected by HPLC: 99.93%
[8]; 40° C., day 5
  purity as detected by HPLC: 99.91%
[8]; 40° C., day 10
  purity as detected by HPLC: 99.91%
[8]; 60° C., day 0
  purity as detected by HPLC: 99.93%
[8]; 60° C., day 5
  purity as detected by HPLC: 99.92%
[8]; 60° C., day 10
  purity as detected by HPLC: 99.90%
[8]; Lighting (4500 Lux), day 0
  purity as detected by HPLC: 99.93%
[8]; Lighting (4500 Lux), day 5
  purity as detected by HPLC: 99.91%
[8]; Lighting (4500 Lux), day 10
  purity as detected by HPLC: 99.91%
[8]; RH 75%, day 0
  purity as detected by HPLC: 99.93%
[8]; RH 75%, day 5
  purity as detected by HPLC: 99.89%
[8]; RH 75%, day 10
  purity as detected by HPLC: 99.91%
[8]; RH 90%, day 0
  purity as detected by HPLC: 99.93%
[8]; RH 90%, day 5
  purity as detected by HPLC: 99.92%
[8]; RH 90%, day 10
  purity as detected by HPLC: 99.92%
[9]; 0 month
  Crystal form: Crystal form I
  Purity: 99.93%
[9]; 6 months
  Crystal form: Crystal form I
  Purity: 99.93%
[9]; 12 months
  Purity: 99.93%
[9]; 24 months
  Purity: 99.93%
[9]; 36 months
  Crystal form: Crystal form I
  Purity: 99.94%
  long-term storage stability: stable after placing under such conditions for 36 months
[10]; after grinding treatment for 10 minutes
  DSC peak: 158.26 °C
[10]; after heating treatment for 3 hours at 80° C.
  DSC peak: 158.17 °C
[10]; after pressing treatment
  DSC peak: 158.33 °C

## CNC(=O)c1ccc(N2C(=S)N(c3ccc(C#N)c(C(F)(F)F)c3)C(=O)C2(C)C)cc1F [MDV-3100]
AIPC [11]
  inhibition of growth of AIPC: can inhibit the growth of AIPC
AIPC [12]
  inhibition of growth of AIPC: can inhibit the growth of AIPC

From US10150739B2, “Crystalline form of androgen receptor inhibitor and preparation method thereof” (priority 2015, dated 2018)
